# Assays:
# Experiment in all cases: relative viability (nuclei count vs DMSO), 5 days (fraction); higher = more cells survive
# CUDC-101 + Pictilisib = compound: C#Cc1cccc(Nc2ncnc3cc(OC)c(OCCCCCCC(=O)NO)cc23)c1 [CUDC-101] + CS(=O)(=O)N1CCN(Cc2cc3nc(-c4cccc5[nH]ncc45)nc(N4CCOCC4)c3s2)CC1 [Pictilisib] (partner 1 µM)
# Summary of the method: (§1)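 Nuclei were stained with Hoechst during a one-step fixation (final 0.05% Triton X-100, 1% formaldehyde, 1 ug/ml Hoechst) carried out 5 days after dosing, then counted on 4× images. The cells, lung cancer lines in 1536-well plates, had been dosed by pin tool the day after seeding with one drug alone or a fixed anchor-drug dose plus five library-drug doses (not always all listed) in √10 steps. Relative viability is the nuclei count in treated wells divided by that in vehicle wells, and each value is the median of duplicate plates.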
# CUDC-101 + Vorinostat = compound: C#Cc1cccc(Nc2ncnc3cc(OC)c(OCCCCCCC(=O)NO)cc23)c1 [CUDC-101] + O=C(CCCCCCC(=O)Nc1ccccc1)NO [Vorinostat] (partner 1 µM)
# Summary of the method: as §1
# [1] = compound: C1=CC=C2C(=C1)N=C(S2)C(C#N)C3=NC(=NC=C3)NCCC4=CN=CC=C4 + Cc1nc(NC(=O)N2CCC[C@H]2C(N)=O)sc1-c1ccnc(C(C)(C)C(F)(F)F)c1 [Alpelisib] (partner 2 µM)
# Summary of the method: as §1
# Vandetanib + Alpelisib = compound: COc1cc2/c(=N/c3ccc(Br)cc3F)nc[nH]c2cc1OCC1CCN(C)CC1 [Vandetanib] + Cc1nc(NC(=O)N2CCC[C@H]2C(N)=O)sc1-c1ccnc(C(C)(C)C(F)(F)F)c1 [Alpelisib] (partner 2 µM)
# Summary of the method: as §1
Cell Line,relative viability (CUDC-101 + Pictilisib; first compound 0.01 µM),relative viability (CUDC-101 + Pictilisib; first compound 0.03162 µM),relative viability (CUDC-101 + Pictilisib; first compound 0.1 µM),relative viability (CUDC-101 + Pictilisib; first compound 0.3162 µM),relative viability (CUDC-101 + Pictilisib; first compound 1 µM),relative viability (CUDC-101 + Vorinostat; first compound 0.01 µM),relative viability (CUDC-101 + Vorinostat; first compound 0.03162 µM),relative viability (CUDC-101 + Vorinostat; first compound 0.1 µM),relative viability (CUDC-101 + Vorinostat; first compound 0.3162 µM),relative viability (CUDC-101 + Vorinostat; first compound 1 µM),relative viability ([1]; first compound 0.005 µM),relative viability ([1]; first compound 0.01581 µM),relative viability ([1]; first compound 0.05 µM),relative viability ([1]; first compound 0.1581 µM),relative viability ([1]; first compound 0.5 µM),relative viability (Vandetanib + Alpelisib; first compound 0.02 µM),relative viability (Vandetanib + Alpelisib; first compound 0.06325 µM),relative viability (Vandetanib + Alpelisib; first compound 0.2 µM),relative viability (Vandetanib + Alpelisib; first compound 0.6325 µM),relative viability (Vandetanib + Alpelisib; first compound 2 µM)
PC-3 [JPC-3],0.756,0.632,0.277,0.348,0.245,0.753,0.691,0.387,0.383,0.335,0.935,1.02,0.96,1.08,0.954,1.03,1,0.982,0.736,0.507
NCI-H1993,0.845,0.824,0.918,0.763,0.869,0.748,1.01,0.688,0.666,0.426,0.671,0.692,0.645,0.652,0.747,0.668,0.706,0.648,0.582,0.703
NCI-H1355,0.485,0.44,0.491,0.38,0.277,0.693,0.663,0.636,0.62,0.497,0.852,0.901,0.823,0.883,0.633,0.811,0.772,0.466,0.958,0.822
NCI-H23,0.518,0.549,0.457,0.435,0.464,0.71,0.731,0.683,0.661,0.335,,0.74,0.582,0.845,0.725,0.609,0.613,0.566,0.772,0.532
CAL-12T,0.686,0.64,0.396,0.449,0.396,0.761,0.803,0.919,0.828,0.487,0.982,1.23,1.31,1.49,1.05,0.993,0.956,1.44,1.26,0.73
ABC-1,0.688,0.788,0.547,0.533,0.212,1.05,0.988,1.17,0.815,0.318,1.05,1.05,1.2,0.961,1.07,1.01,0.787,0.95,1.12,0.827
HCC-44,0.593,0.63,0.531,0.69,0.366,1.04,1.2,1.13,1.02,1.11,0.716,0.835,0.737,0.915,0.638,0.799,0.812,0.999,0.807,0.762
NCI-H1755,0.406,0.409,0.444,0.41,0.264,0.759,0.741,0.73,0.67,0.637,0.839,1,0.959,1.03,0.849,0.935,0.888,0.872,0.896,0.858

# From the supplement of paper PMC10307832
